Measured values reported in PMC8241580 (Bioorganic Chemistry, 2021).
Several values for one entry are separate records, joined by “and”; a condition that tells them apart may be missing. Equal values may be shown once.

How the values were obtained:
SARS-CoV-2 = assay: Antiviral assay, virus-induced cytopathic effect; assay type: cell-based, SARS-CoV-2 (hCoV-19/Egypt/NRC-03/2020); conditions: CC50 VERO-E6 / IC50 SARS-CoV-2
[1] = system: chick embryo chorioallantoic membrane (CAM) blood vessels; assay: CAM assay; assay type: in vivo, chicken; conditions: 20 μl of 660 μM, 3 days of treatment, n = 4, vehicle control 14.00 ± 3.00
[2] = system: HCT116 (colon) cancer cell line; assay: MTT antiproliferative assay, HCT116; assay type: cell-based; conditions: Homo sapiens, HCT-116, 72 h, read-out: IC50 (μM) ± SE HCT116
MCF7 cells [3] = assay: Cell cycle analysis by PI-flow cytometry; assay type: cell-based; conditions: MCF7, compound at its IC50; for DNA content (%) Pre-G1: control 1.49; for DNA content (%) G2/M: control 5.09; for DNA content (%) S: control 41.12; for DNA content (%) G0-G1: control 53.79
[4] = system: PaCa-2 (pancreatic) cancer cell line; assay: MTT antiproliferative assay, PaCa-2; assay type: cell-based; conditions: for IC50: PaCa-2, 72 h, read-out: IC50 (μM) ± SE PaCa-2; for Potency against PaCa2 relative to Sunitinib: ratio of IC50 values
[5] = system: MCF7 (breast) cancer cell line; assay: MTT antiproliferative assay, MCF7; assay type: cell-based; conditions: for IC50: Homo sapiens, MCF7, 72 h, read-out: IC50 (μM) ± SE MCF7
c-kit = c-kit (Homo sapiens, UniProt P10721); assay: c-Kit ADP-Glo kinase assay; assay type: biochemical
Sequence of c-kit (P10721 26-976): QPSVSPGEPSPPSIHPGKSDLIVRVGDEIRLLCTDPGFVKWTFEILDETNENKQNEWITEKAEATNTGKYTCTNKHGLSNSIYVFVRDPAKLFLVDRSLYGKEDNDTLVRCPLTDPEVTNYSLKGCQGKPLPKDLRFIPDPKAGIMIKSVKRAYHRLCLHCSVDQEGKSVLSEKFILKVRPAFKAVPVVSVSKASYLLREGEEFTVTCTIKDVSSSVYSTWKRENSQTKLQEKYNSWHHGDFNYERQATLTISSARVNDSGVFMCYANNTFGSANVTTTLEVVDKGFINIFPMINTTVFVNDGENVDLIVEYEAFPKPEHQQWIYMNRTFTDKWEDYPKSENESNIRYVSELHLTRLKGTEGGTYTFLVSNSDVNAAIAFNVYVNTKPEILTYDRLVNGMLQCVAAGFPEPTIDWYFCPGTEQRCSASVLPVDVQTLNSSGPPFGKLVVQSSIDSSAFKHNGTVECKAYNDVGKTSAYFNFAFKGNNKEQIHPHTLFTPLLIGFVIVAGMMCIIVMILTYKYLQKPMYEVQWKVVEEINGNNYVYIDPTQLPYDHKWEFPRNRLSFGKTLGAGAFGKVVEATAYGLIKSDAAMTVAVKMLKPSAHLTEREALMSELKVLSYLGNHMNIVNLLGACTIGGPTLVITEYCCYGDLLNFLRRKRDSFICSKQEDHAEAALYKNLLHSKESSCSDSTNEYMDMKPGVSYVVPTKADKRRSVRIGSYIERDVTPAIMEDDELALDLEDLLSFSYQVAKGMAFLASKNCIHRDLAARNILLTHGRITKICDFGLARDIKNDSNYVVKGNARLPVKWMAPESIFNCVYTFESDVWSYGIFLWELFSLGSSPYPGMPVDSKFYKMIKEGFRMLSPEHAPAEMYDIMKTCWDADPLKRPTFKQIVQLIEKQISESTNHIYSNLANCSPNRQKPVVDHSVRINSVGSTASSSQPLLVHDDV

VEGFR-2 = VEGFR-2 (Homo sapiens, UniProt P35968); assay: VEGFR-2; assay type: biochemical; conditions: for VEGFR-2 inhibitory potency relative to Sunitinib: ratio of IC50 values
Sequence of VEGFR-2 (P35968 20-1356): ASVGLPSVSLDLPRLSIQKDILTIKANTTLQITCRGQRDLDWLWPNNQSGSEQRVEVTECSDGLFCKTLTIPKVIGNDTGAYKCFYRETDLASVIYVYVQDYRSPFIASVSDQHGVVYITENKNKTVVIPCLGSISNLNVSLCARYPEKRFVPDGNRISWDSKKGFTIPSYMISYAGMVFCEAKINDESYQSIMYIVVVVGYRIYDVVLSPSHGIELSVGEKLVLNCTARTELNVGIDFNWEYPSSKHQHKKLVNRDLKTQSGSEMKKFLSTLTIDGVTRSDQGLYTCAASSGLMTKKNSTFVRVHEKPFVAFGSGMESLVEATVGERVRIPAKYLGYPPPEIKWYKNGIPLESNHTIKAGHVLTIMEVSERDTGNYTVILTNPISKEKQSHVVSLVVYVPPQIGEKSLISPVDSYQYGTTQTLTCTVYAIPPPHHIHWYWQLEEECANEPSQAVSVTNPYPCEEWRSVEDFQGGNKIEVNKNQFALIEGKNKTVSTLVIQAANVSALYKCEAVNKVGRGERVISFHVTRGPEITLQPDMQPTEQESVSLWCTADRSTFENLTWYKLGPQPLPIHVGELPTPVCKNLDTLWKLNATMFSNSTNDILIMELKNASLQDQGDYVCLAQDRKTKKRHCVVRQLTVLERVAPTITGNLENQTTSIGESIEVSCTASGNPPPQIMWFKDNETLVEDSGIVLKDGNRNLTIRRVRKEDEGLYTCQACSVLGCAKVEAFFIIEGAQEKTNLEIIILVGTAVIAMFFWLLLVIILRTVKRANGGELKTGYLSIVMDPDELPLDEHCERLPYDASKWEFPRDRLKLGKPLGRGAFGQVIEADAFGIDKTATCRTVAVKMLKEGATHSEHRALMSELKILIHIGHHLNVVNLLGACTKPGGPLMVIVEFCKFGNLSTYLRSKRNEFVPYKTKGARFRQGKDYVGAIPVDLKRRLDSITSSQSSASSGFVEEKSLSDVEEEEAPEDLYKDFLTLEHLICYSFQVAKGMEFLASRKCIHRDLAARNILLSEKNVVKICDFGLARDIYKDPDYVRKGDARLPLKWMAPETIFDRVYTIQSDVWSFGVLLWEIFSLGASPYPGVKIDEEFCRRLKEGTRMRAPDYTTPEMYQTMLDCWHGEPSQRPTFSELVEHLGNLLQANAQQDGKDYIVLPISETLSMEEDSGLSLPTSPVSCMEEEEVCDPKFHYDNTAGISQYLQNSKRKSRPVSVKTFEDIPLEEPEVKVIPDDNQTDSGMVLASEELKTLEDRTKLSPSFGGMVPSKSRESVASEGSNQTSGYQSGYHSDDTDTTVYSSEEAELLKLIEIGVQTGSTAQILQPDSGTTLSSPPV

MCF7 cells [6] = assay: Annexin V-FITC apoptosis/necrosis study; assay type: cell-based; conditions: MCF7, compound at its IC50; for Apoptosis (%) Late: control 0.13; for Apoptosis (%) Early: control 0.49; for Necrosis: control 0.87; for Apoptosis (%) Total: control 1.49

SMILES: CCN(CC)CCCC(C)Nc1ccnc2cc(Cl)ccc12 (stereo not drawn) [Chloroquine, reference compound]
- SI (Selectivity index/therapeutical index) = CC50/IC50 (SARS-CoV-2): 19.1

SMILES: CS(=O)(=O)Oc1ccc(C(=O)/C=C2/C(=O)Nc3ccccc32)cc1 [Compound 6a, (E)-4-[2-(2-Oxoindolin-3-ylidene)acetyl]phenyl methanesulfonate]
- Mean diameter of blood vessels (mm ± SD) [1]: 3.20 ± 1.00 mm
- IC50 [2]: 16.4 ± 0.7 µM
- DNA content (%) Pre-G1 (MCF7 cells [3]): 34.71%
- DNA content (%) G2/M (MCF7 cells [3]): 2.67%
- DNA content (%) S (MCF7 cells [3]): 43.25%
- DNA content (%) G0-G1 (MCF7 cells [3]): 54.08%
- IC50 [4]: 8.3 ± 0.44 µM
- IC50 [5]: 6.85 ± 0.37 µM
- SI (Selectivity index/therapeutical index) = CC50/IC50 (SARS-CoV-2): 362.5
- IC50 (c-kit): 0.12 ± 0.012 µM
- IC50 (VEGFR-2): 0.054 ± 0.0054 µM

SMILES: CCS(=O)(=O)Oc1ccc(C(=O)/C=C2/C(=O)Nc3ccccc32)cc1 [Compound 6b, (E)-4-[2-(2-Oxoindolin-3-ylidene)acetyl]phenyl ethanesulfonate]
- Mean diameter of blood vessels (mm ± SD) [1]: 5.10 ± 1.00 mm
- IC50 [2]: 12.8 ± 1.41 µM
- Cell cycle phase arrested (MCF7 cells [3]): arrests the cell cycle at G1/S phase
- Decrease in cell population at G2/M relative to control (MCF7 cells [3]): 47.5%
- DNA content (%) G2/M (MCF7 cells [3]): 2.67%
- DNA content (%) S (MCF7 cells [3]): 43.25%
- DNA content (%) G0-G1 (MCF7 cells [3]): 54.08%
- IC50 [4]: 5.6 ± 0.57 µM
- Potency against PaCa2 relative to Sunitinib [4]: three time folds
- IC50 [5]: 4.25 ± 0.23 µM
- SI (Selectivity index/therapeutical index) = CC50/IC50 (SARS-CoV-2): 23.8
- Apoptosis (%) Late (MCF7 cells [6]): 22.91%
- Apoptosis (%) Early (MCF7 cells [6]): 2.51%
- Necrosis (MCF7 cells [6]): 9.29%
- Apoptosis (%) Total (MCF7 cells [6]): 34.71%
- IC50 (c-kit): 0.248 ± 0.0248 µM
- IC50 (VEGFR-2): 0.0989 ± 0.0099 µM

SMILES: CCS(=O)(=O)Oc1ccc(C(=O)/C=C2/C(=O)Nc3ccc(Cl)cc32)cc1 [Compound 6c, (E)-4-[2-(5-Chloro-2-oxoindolin-3-ylidene)acetyl]phenyl ethanesulfonate]
- Mean diameter of blood vessels (mm ± SD) [1]: 5.1 mm and 5.13 ± 0.90 mm
- IC50 [2]: 5.33 ± 0.46 µM
- IC50 [4]: 4.99 ± 0.29 µM
- Potency against PaCa2 relative to Sunitinib [4]: about 3.4 folds
- IC50 [5]: 4.28 ± 0.51 µM
- SI (Selectivity index/therapeutical index) = CC50/IC50 (SARS-CoV-2): 26.4
- IC50 (c-kit): 0.0723 ± 0.0072 µM
- IC50 (VEGFR-2): 0.0369 ± 0.0037 µM
- VEGFR-2 inhibitory potency relative to Sunitinib (VEGFR-2): 1.3 fold

SMILES: CS(=O)(=O)N(c1ccc(C(=O)/C=C2/C(=O)Nc3ccccc32)cc1)S(C)(=O)=O [Compound 10a, (E)-N-(Methylsulfonyl)-N-{4-[2-(2-oxoindolin-3-ylidene)acetyl]phenyl}methanesulfonamide]
- Mean diameter of blood vessels (mm ± SD) [1]: 3.50 ± 0.50 mm
- IC50 [2]: 21 ± 1.75 µM
- DNA content (%) Pre-G1 (MCF7 cells [3]): 28.25%
- DNA content (%) G2/M (MCF7 cells [3]): 4.11%
- DNA content (%) S (MCF7 cells [3]): 54.18%
- DNA content (%) G0-G1 (MCF7 cells [3]): 41.71%
- IC50 [4]: 6.91 ± 0.89 µM
- IC50 [5]: 6.07 ± 0.83 µM
- SI (Selectivity index/therapeutical index) = CC50/IC50 (SARS-CoV-2): 7.4
- IC50 (c-kit): 0.103 ± 0.0103 µM
- IC50 (VEGFR-2): 0.102 ± 0.0102 µM

SMILES: CCS(=O)(=O)N(c1ccc(C(=O)/C=C2/C(=O)Nc3ccccc32)cc1)S(=O)(=O)CC [Compound 10b, (E)-N-(Ethylsulfonyl)-N-{4-[2-(2-oxoindolin-3-ylidene)acetyl]phenyl}ethanesulfonamide]
- Mean diameter of blood vessels (mm ± SD) [1]: 2.70 ± 0.40 mm
- IC50 [2]: 13.8 ± 1.06 µM
- Cell cycle phase arrested (MCF7 cells [3]): arrest the tested cell at S phase
- Increment in S phase relative to control (MCF7 cells [3]): about 13%
- DNA content (%) S (MCF7 cells [3]): 54.18%
- IC50 [4]: 5.08 ± 0.57 µM
- Potency against PaCa2 relative to Sunitinib [4]: ~3.3 folds
- IC50 [5]: 4.15 ± 0.78 µM
- SI (Selectivity index/therapeutical index) = CC50/IC50 (SARS-CoV-2): 165.6
- Apoptosis (%) Late (MCF7 cells [6]): 17.15%
- Apoptosis (%) Early (MCF7 cells [6]): 4.03%
- Necrosis (MCF7 cells [6]): 7.07%
- Apoptosis (%) Total (MCF7 cells [6]): 28.25%
- IC50 (c-kit): 0.185 ± 0.0185 µM
- IC50 (VEGFR-2): 0.0741 ± 0.0074 µM

SMILES: CCS(=O)(=O)N(c1ccc(C(=O)/C=C2/C(=O)Nc3ccc(Cl)cc32)cc1)S(=O)(=O)CC [Compound 10c, (E)-N-{4-[2-(5-Chloro-2-oxoindolin-3-ylidene)acetyl]phenyl}-N-(ethylsulfonyl)ethanesulfonamide]
- Mean diameter of blood vessels (mm ± SD) [1]: 5.0 mm and 5.00 ± 0.40 mm
- IC50 [2]: > 50 µM
- IC50 [4]: 6.18 ± 0.32 µM
- IC50 [5]: 4.43 ± 0.47 µM
- Potency against MCF7 relative to Sunitinib ([5]; ratio of IC50 values): 0.9 fold
- SI (Selectivity index/therapeutical index) = CC50/IC50 (SARS-CoV-2): 75.5
- IC50 (c-kit): 0.0817 ± 0.0082 µM
- IC50 (VEGFR-2): 0.0534 ± 0.0053 µM
- VEGFR-2 inhibitory potency relative to Sunitinib (VEGFR-2): 0.89 fold

SMILES: NC(=O)c1nc(F)c[nH]c1=O [Favipiravir, reference compound]
- SI (Selectivity index/therapeutical index) = CC50/IC50 (SARS-CoV-2): 1.9

SMILES: CCN(CCO)CCCC(C)Nc1ccnc2cc(Cl)ccc12 (stereo not drawn) [Hydroxychloroquine, reference compound]
- SI (Selectivity index/therapeutical index) = CC50/IC50 (SARS-CoV-2): 12.2

SMILES: CCN(CC)CCNC(=O)c1c(C)[nH]c(/C=C2\C(=O)Nc3ccc(F)cc32)c1C [Sunitinib, reference compound]
- Mean diameter of blood vessels (mm ± SD) [1]: 5 mm and 5.0 mm and 5.00 ± 0.71 mm
- IC50 [2]: 5.03 ± 0.3 µM
- IC50 [4]: 16.9 ± 0.95 µM
